How the values were obtained:
[1] = tested on: Puccinia recondita f. Sp. Tritici; assay: Fungicidal activity against Puccinia recondita f. sp. tritici / wheat / leaf disc preventative (brown rust); assay type: in vivo; details: foliar, 200 ppm in the applied formulation, wheat leaf segments, preventative, compared to untreated control leaf disks, read-out: disease control
Procedure, shortened: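 Preventative leaf-segment test, wheat cv. Kanzler on water agar. Spray compound at 200 ppm, inoculate with spores 1 day later; 19° C., 75% rh, 12/12 h light. Read-out: % disease control vs untreated, 7 to 9 days after application.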

[2] = tested on: Puccinia recondita f. Sp. Tritici; assay: Fungicidal activity against Puccinia recondita f. sp. tritici / wheat / leaf disc curative (brown rust); assay type: in vivo; details: foliar, 24 h, 200 ppm in the applied formulation, wheat leaf segments, curative (applied 1 day after inoculation), compared to untreated control leaf disks, read-out: disease control
Procedure, shortened: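 Inoculate cv. Kanzler segments on agar; hold dark, 19° C, 75% RH. Spray diluted formulated compound at day 1. Incubate 12 h light/12 h dark, same temperature and humidity; score % control vs untreated 6–8 days later.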

Phakopsora Pachyrhizi = assay: Fungicidal activity against Phakopsora pachyrhizi / soybean / leaf disc preventative (Asian soybean rust); assay type: in vivo; details: foliar, 200 ppm in the applied formulation, soybean leaf disks, compared to untreated control leaf disks, read-out: disease control
Procedure, shortened: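 Preventative soybean leaf-disc test: discs on water agar sprayed with diluted formulated compound, inoculated one day later with spores on the lower surface. Held 24–36 h dark at 20°C, 75% rh, then 12 h light/day; percent disease control versus untreated discs scored 12–14 days after application.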

[3] = tested on: Glomerella lagenarium (Colletotrichum lagenarium); assay: Fungicidal activity against Glomerella lagenarium (Colletotrichum lagenarium) liquid culture / cucumber / preventative (anthracnose); assay type: cell-based; details: Colletotrichum orbiculare; 20 ppm in the applied formulation; liquid culture (PDB), growth inhibition measured photometrically after 3 to 4 days; compared to untreated control; read-out: disease control
Procedure, shortened: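 Photometric read-out of fungal growth after 2–7 days, expressed as percent antifungal activity versus untreated check. Cryo-stored conidia in PDB; compound at 20 ppm; dark, 24 °C, 96% RH.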

O=C(Cc1ccccc1)N(Cc1ccc(-c2noc(C(F)(F)F)n2)cc1)C1CC1 [Compound 1.121, N-cyclopropyl-2-phenyl-N-[[4-[5-(trifluoromethyl)-1,2,4-oxadiazol-3-yl]phenyl]methyl]-acetamide]
≥ 80%: pest or weed control at 200 ppm [1] | pest or weed control at 200 ppm [2] | pest or weed control at 200 ppm (Phakopsora Pachyrhizi) | inhibition of growth at 20 ppm [3]

CCN(Cc1ccc(-c2noc(C(F)(F)F)n2)cc1)C(=O)NC [Compound 3.52, 1-ethyl-3-methyl-1-[[4-[5-(trifluoromethyl)-1,2,4-oxadiazol-3-yl]phenyl]methyl]urea]
≥ 80%: pest or weed control at 200 ppm [1] | pest or weed control at 200 ppm [2] | pest or weed control at 200 ppm (Phakopsora Pachyrhizi) | inhibition of growth at 20 ppm [3]

CCC(C)C(=O)N(CCOC)Cc1ccc(-c2noc(C(F)(F)F)n2)cc1 (centres unmarked) [Compound 1.350, N-(2-methoxyethyl)-2-methyl-N-[[4-[5-(trifluoromethyl)-1,2,4-oxadiazol-3-yl]phenyl]methyl]-butanamide]
≥ 80%: pest or weed control at 200 ppm [1] | pest or weed control at 200 ppm [2] | pest or weed control at 200 ppm (Phakopsora Pachyrhizi) | inhibition of growth at 20 ppm [3]

CCN(Cc1ccc(-c2noc(C(F)(F)F)n2)cc1)C(=O)C1CCCO1 (centres unmarked) [Compound 1.509, N-ethyl-N-[[4-[5-(trifluoromethyl)-1,2,4-oxadiazol-3-yl]phenyl]methyl]-tetrahydrofuran-2-carboxamide]
≥ 80%: pest or weed control at 200 ppm [1] | pest or weed control at 200 ppm [2] | pest or weed control at 200 ppm (Phakopsora Pachyrhizi) | inhibition of growth at 20 ppm [3]

CCN(Cc1ccc(-c2noc(C(F)(F)F)n2)cc1)C(=O)CCCOC [Compound 1.507, N-ethyl-4-methoxy-N-[[4-[5-(trifluoromethyl)-1,2,4-oxadiazol-3-yl]phenyl]methyl]-butanamide]
≥ 80%: pest or weed control at 200 ppm [1] | pest or weed control at 200 ppm [2] | pest or weed control at 200 ppm (Phakopsora Pachyrhizi) | inhibition of growth at 20 ppm [3]

CON(Cc1ccc(-c2noc(C(F)(F)F)n2)cc1)C(=O)NCc1ccco1 [Compound 3.24, 3-(2-furylmethyl)-1-methoxy-1-[[4-[5-(trifluoromethyl)-1,2,4-oxadiazol-3-yl]phenyl]methyl]urea]
≥ 80%: pest or weed control at 200 ppm [1] | pest or weed control at 200 ppm [2] | pest or weed control at 200 ppm (Phakopsora Pachyrhizi) | inhibition of growth at 20 ppm [3]

N#CCC(=O)N(Cc1ccc(-c2noc(C(F)(F)F)n2)cc1)CC1CC1 [Compound 1.243, 2-cyano-N-(cyclopropylmethyl)-N-[[4-[5-(trifluoromethyl)-1,2,4-oxadiazol-3-yl]phenyl]methyl]-acetamide]
≥ 80%: pest or weed control at 200 ppm [1] | pest or weed control at 200 ppm [2] | pest or weed control at 200 ppm (Phakopsora Pachyrhizi) | inhibition of growth at 20 ppm [3]

CN(Cc1ccc(-c2noc(C(F)(F)F)n2)cc1)C(=O)C1CCC1 [Compound 1.518, N-methyl-N-[[4-[5-(trifluoromethyl)-1,2,4-oxadiazol-3-yl]phenyl]methyl]-cyclobutane-carboxamide]
≥ 80%: pest or weed control at 200 ppm [1] | pest or weed control at 200 ppm [2] | pest or weed control at 200 ppm (Phakopsora Pachyrhizi) | inhibition of growth at 20 ppm [3]

C=C(C)C(=O)N(CCOC)Cc1ccc(-c2noc(C(F)(F)F)n2)cc1 [Compound 1.346, N-(2-methoxyethyl)-2-methyl-N-[[4-[5-(trifluoromethyl)-1,2,4-oxadiazol-3-yl]phenyl]methyl]prop-2-enamide]
≥ 80%: pest or weed control at 200 ppm [1] | pest or weed control at 200 ppm [2] | pest or weed control at 200 ppm (Phakopsora Pachyrhizi) | inhibition of growth at 20 ppm [3]

CON(Cc1ccc(-c2noc(C(F)(F)F)n2)cc1)C(=O)N(C)C1CC1 [Compound 3.58, 1-cyclopropyl-3-methoxy-1-methyl-3-[[4-[5-(trifluoromethyl)-1,2,4-oxadiazol-3-yl]phenyl]methyl]urea]
≥ 80%: pest or weed control at 200 ppm [1] | pest or weed control at 200 ppm [2] | pest or weed control at 200 ppm (Phakopsora Pachyrhizi) | inhibition of growth at 20 ppm [3]

CCC(C)C(=O)N(Cc1ccc(-c2noc(C(F)(F)F)n2)cc1)C(C)C (centres unmarked) [Compound 1.678, N-isopropyl-2-methyl-N-[[4-[5-(trifluoromethyl)-1,2,4-oxadiazol-3-yl]phenyl]methyl]-butanamide]
≥ 80%: pest or weed control at 200 ppm [1] | pest or weed control at 200 ppm [2] | pest or weed control at 200 ppm (Phakopsora Pachyrhizi) | inhibition of growth at 20 ppm [3]

COC(C)C(=O)N(O)Cc1ccc(-c2noc(C(F)(F)F)n2)cc1 (centres unmarked) [Compound 1.772, N-hydroxy-2-methoxy-N-[[4-[5-(trifluoromethyl)-1,2,4-oxadiazol-3-yl]phenyl]methyl]-propanamide]
≥ 80%: pest or weed control at 200 ppm [1] | pest or weed control at 200 ppm [2] | pest or weed control at 200 ppm (Phakopsora Pachyrhizi) | inhibition of growth at 20 ppm [3]

C=CCCC(=O)N(Cc1ccc(-c2noc(C(F)(F)F)n2)cc1)C1CC1 [Compound 1.91, N-cyclopropyl-N-[[4-[5-(trifluoromethyl)-1,2,4-oxadiazol-3-yl]phenyl]methyl]-pent-4-enamide]
≥ 80%: pest or weed control at 200 ppm [1] | pest or weed control at 200 ppm [2] | pest or weed control at 200 ppm (Phakopsora Pachyrhizi) | inhibition of growth at 20 ppm [3]

COC(C)C(=O)N(Cc1ccc(-c2noc(C(F)(F)F)n2)cc1)CC(F)(F)F (centres unmarked) [Compound 1.703, 2-methoxy-N-(2,2,2-trifluoroethyl)-N-[[4-[5-(trifluoromethyl)-1,2,4-oxadiazol-3-yl]phenyl]methyl]-propanamide]
≥ 80%: pest or weed control at 200 ppm [1] | pest or weed control at 200 ppm [2] | pest or weed control at 200 ppm (Phakopsora Pachyrhizi) | inhibition of growth at 20 ppm [3]

C=CCN(Cc1ccc(-c2noc(C(F)(F)F)n2)cc1)C(=O)C1CC1(F)F (centres unmarked) [Compound 1.484, N-allyl-2,2-difluoro-N-[[4-[5-(trifluoromethyl)-1,2,4-oxadiazol-3-yl]phenyl]methyl]-cyclopropane-carboxamide]
≥ 80%: pest or weed control at 200 ppm [1] | pest or weed control at 200 ppm [2] | pest or weed control at 200 ppm (Phakopsora Pachyrhizi) | inhibition of growth at 20 ppm [3]

CCCN(Cc1ccc(-c2noc(C(F)(F)F)n2)cc1)C(=O)C1(C)CC1 [Compound 1.658, 1-methyl-N-propyl-N-[[4-[5-(trifluoromethyl)-1,2,4-oxadiazol-3-yl]phenyl]methyl]-cyclopropane-carboxamide]
≥ 80%: pest or weed control at 200 ppm [1] | pest or weed control at 200 ppm [2] | pest or weed control at 200 ppm (Phakopsora Pachyrhizi) | inhibition of growth at 20 ppm [3]

COCCN(Cc1ccc(-c2noc(C(F)(F)F)n2)cc1)C(=O)C1OCCO1 [Compound 1.360, N-(2-methoxyethyl)-N-[[4-[5-(trifluoromethyl)-1,2,4-oxadiazol-3-yl]phenyl]methyl]-1,3-dioxolane-2-carboxamide]
≥ 80%: pest or weed control at 200 ppm [1] | pest or weed control at 200 ppm [2] | pest or weed control at 200 ppm (Phakopsora Pachyrhizi) | inhibition of growth at 20 ppm [3]

COCC(=O)N(Cc1ccc(-c2noc(C(F)(F)F)n2)cc1)C1CC1 [Compound 1.777, N-cyclopropyl-2-methoxy-N-[[4-[5-(trifluoromethyl)-1,2,4-oxadiazol-3-yl]phenyl]methyl]-acetamide]
≥ 80%: pest or weed control at 200 ppm [1] | pest or weed control at 200 ppm [2] | pest or weed control at 200 ppm (Phakopsora Pachyrhizi) | inhibition of growth at 20 ppm [3]

CCCON(Cc1ccc(-c2noc(C(F)(F)F)n2)cc1)C(=O)C(C)OC (centres unmarked) [Compound 1.316, 2-methoxy-N-propoxy-N-[[4-[5-(trifluoromethyl)-1,2,4-oxadiazol-3-yl]phenyl]methyl]-propanamide]
≥ 80%: pest or weed control at 200 ppm [1] | pest or weed control at 200 ppm [2] | pest or weed control at 200 ppm (Phakopsora Pachyrhizi) | inhibition of growth at 20 ppm [3]

O=C(C1CCCO1)N(Cc1ccc(-c2noc(C(F)(F)F)n2)cc1)CC(F)(F)F (centres unmarked) [Compound 1.587, N-(2,2,2-Trifluoroethyl)-N-[[4-[5-(Trifluoromethyl)-1,2,4-Oxadiazol-3-yl]Phenyl]Methyl]Tetrahydrofuran-2-Carboxamide]
≥ 80%: pest or weed control at 200 ppm [1] | pest or weed control at 200 ppm [2] | pest or weed control at 200 ppm (Phakopsora Pachyrhizi) | inhibition of growth at 20 ppm [3]

N#CC1(C(=O)N(Cc2ccc(-c3noc(C(F)(F)F)n3)cc2)C2COC2)CC1 [Compound 1.749, 1-cyano-N-(oxetan-3-yl)-N-[[4-[5-(trifluoromethyl)-1,2,4-oxadiazol-3-yl]phenyl]methyl]-cyclopropane-carboxamide]
≥ 80%: pest or weed control at 200 ppm [1] | pest or weed control at 200 ppm [2] | pest or weed control at 200 ppm (Phakopsora Pachyrhizi) | inhibition of growth at 20 ppm [3]

CC(=O)N(O)Cc1ccc(-c2noc(C(F)(F)F)n2)cc1 [Compound 1.773, N-hydroxy-N-[[4-[5-(trifluoromethyl)-1,2,4-oxadiazol-3-yl]phenyl]methyl]-acetamide]
≥ 80%: pest or weed control at 200 ppm [1] | pest or weed control at 200 ppm [2] | pest or weed control at 200 ppm (Phakopsora Pachyrhizi) | inhibition of growth at 20 ppm [3]

CC(C)(CCl)C(=O)N(Cc1ccc(-c2noc(C(F)(F)F)n2)cc1)C1CC1 [Compound 1.110, 3-chloro-N-cyclopropyl-2,2-dimethyl-N-[[4-[5-(trifluoromethyl)-1,2,4-oxadiazol-3-yl]phenyl]methyl]-propanamide]
≥ 80%: pest or weed control at 200 ppm [1] | pest or weed control at 200 ppm [2] | pest or weed control at 200 ppm (Phakopsora Pachyrhizi) | inhibition of growth at 20 ppm [3]
